Laboratory results published in patent US10085981B2, “Protein acyl transferase inhibitors and methods of treatment” (UNIVERSITY OF SOUTH FLORIDA, priority 2015, dated 2018).
Like-named read-outs stand apart in the source and are kept apart here.

Experiments:
Erf2 [1] = biological target: T1, Erf2 (Saccharomyces cerevisiae, UniProt Q06551); settings: previously demonstrated [13]; cited from earlier work
T1 construct: made in house; host or cells: Saccharomyces cerevisiae strain RJY1842 (erf4Δ/erf4Δ), galactose-induced pESC(-Leu) vector, Ni-NTA purified
T1 sequence (Q06551 whole entry): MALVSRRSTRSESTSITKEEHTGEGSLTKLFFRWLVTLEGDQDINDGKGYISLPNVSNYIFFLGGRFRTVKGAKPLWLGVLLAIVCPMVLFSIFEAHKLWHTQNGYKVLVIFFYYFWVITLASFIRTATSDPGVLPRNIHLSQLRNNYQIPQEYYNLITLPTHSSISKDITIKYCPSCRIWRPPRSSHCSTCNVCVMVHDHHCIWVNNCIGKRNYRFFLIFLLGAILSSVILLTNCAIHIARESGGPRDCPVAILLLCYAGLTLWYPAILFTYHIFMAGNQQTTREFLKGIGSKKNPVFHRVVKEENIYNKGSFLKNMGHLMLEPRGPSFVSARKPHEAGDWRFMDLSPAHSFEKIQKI

Erf2 [2] = biological target: T1, Erf2; assay: BODIPY-C12:0 gel-based assay of steady-state Erf2 autopalmitoylation; format: biochemical, S. cerevisiae
Description: BODIPY®-C12:0-CoA (40 μM final, unless specified otherwise) was added to a 50 μl reaction containing approximately 0.5 μg enzyme (6×HIS-Erf2-(FLAG)-Erf4) and 100 μM inhibitors in 5% DMF in 50 mM sodium phosphate buffer, pH 6.8. The reactions were incubated 10 mins with inhibitor, and then the reaction was initiated with the addition of BODIPY®-C12:0-CoA, and incubated 15 mins at 30° C. The reaction was terminated by the addition of 5× non-reducing protein loading buffer. Each reaction was heated at 65° C. for 3 mins and then subjected to SDS-PAGE (12%). The gel was rinsed three times in ddH2O and visualized on the Typhoon 9410 Variable Mode Imager (GE Healthcare, Piscataway, N.J.) for BODIPY® fluorescence (ex. 488 nm/em. 532 nm) to visualize co-migration of the BODIPY® signal with 6×HIS-Erf2-(FLAG)-Erf4. The amount of 6×HIS-Erf2-(FLAG)-Erf4 was determined empirically using SDS-PAGE analysis under reducing conditions against a standard curve of bovine serum albumin.
To determine if the ten compounds identified in this study were inhibiting autopalmitoylation, and not targeting hydrolysis of the enzyme, steady-state autopalmitoylation was evaluated at 100 μM of each compound compared to 100 μM 2-BP and DMF (vehicle) alone. […] From these screens we observed a decrease in BODIPY® fluorescence at the apparent molecular weight of Erf2. […]

[3] = tested on: S. cerevisiae RJY1942 (palmitoylation sensitive); assay: Growth inhibition assay, palmitoylation-sensitive strain; format: cell-based; settings: for selectivity: EC50 in the control strain RJY1941 as compared to the sensitive strain RJY1942: growth curves, 24 hrs
Description: The in vivo effect of the inhibitors on Ras2 palmitoylation was investigated by comparing the growth of S. cerevisiae strains previously described for our complementation assay. Briefly, the cells contain a defective allele of RAS2 that is balanced by an episomal copy of RAS2 linked to URA3. Under these conditions, the yeast strain cannot grow unless the episomal copy of RAS2 is palmitoylated. Varying concentrations of the inhibitors were added to 200 μl volumes of the yeast cells at an OD600 between 0.8 and 1.2 in a 96-well plate format. The OD600 was observed every 30 mins for 24 hrs and EC50 values were determined by graphing rate of growth against concentration of inhibitor for each inhibitor.
To examine the inhibition of Ras palmitoylation in vivo, we utilized two strains of S. cerevisiae. The yeast strain RJY1942 (palmitoylation sensitive) requires Ras2 palmitoylation for viability. The isogenic wild type control yeast strain (RJY1941) is not dependent on Ras2 palmitoylation for viability. The growth of both strains was monitored in the presence (or absence) of our inhibitors every 30 mins for 24 hrs. EC50 values were calculated using GraphPad Prism® (La Jolla, Calif.) to extrapolate the effective concentration of each inhibitor that caused a 50% reduction in growth (FIG. 9). […] Compounds 13, 25, and 2-BP show a modest selectivity for the sensitive strain, RJY1942, over the control strain, RJY1941, resulting in a 2-fold greater EC50 value in the control strain as compared to the sensitive strain (values listed in FIG. 5, right panel). […] Additional work is needed to determine the mechanism of growth inhibition and selectivity of these compounds.

[4] = tested on: S. cerevisiae RJY1942 (sensitized); assay: Yeast cell spot assay, sensitized strain; format: cell-based; settings: for inhibition at 5 µM: Saccharomyces cerevisiae
Description: (§1) Following 24 hrs incubation with varying concentrations of the inhibitors in 1% DMF, S. cerevisiae strains RJY1941 and RJY1942 were then diluted 1/100, and spotted onto SC-Ura plates with 2% glucose. Cytotoxicity data was obtained by detecting the colony growth, following 48 hrs incubation at 30° C., with white light detection on the Bio-Rad Molecular Imager® ChemiDoc™ XRS+ (Hercules, Calif.) and performing densitometry with Bio-Rad ImageLab™ Software (Hercules, Calif.). Triplicate reactions were plated in triplicate. Values were normalized to vehicle control (1% DMF) for each plate, and then the averages of each reaction were compared for statistical analysis.
(§2) We next compared the ability of either strain to grow following the 24 hrs incubation with Compounds 13, 14, or 25. Serial dilutions of RJY1941 and RJY1942 were spotted on agar plates following incubation for 24 hrs with varying inhibitor concentrations. […] Conversely, compound 13 inhibited (100%) the growth of RJY1942 (sensitized) at 5 μM.

Erf2 [5] = biological target: T1, Erf2; assay: Fluorescence-based coupled PAT assay of the rate of Erf2 autopalmitoylation; format: biochemical, S. cerevisiae; settings: for mode of inhibition of Erf2 autopalmitoylation: inhibitor titrations varying inhibitor and palmitoyl-CoA
Description: The HTS application of protein palmitoylation was recently described, but was adjusted for this study. The production of NADH was monitored with a Biotek Mx fluorimeter (Biotek, Winooski, Vt.) using 340 nm excitation/465 nm emission. The 50 μl reaction contained 2 mM 2-Oxoglutarate (α-ketoglutamic acid), 0.25 mM NAD+, 0.2 mM Thiamine Pyrophosphate, 0.5 μg of purified 6×HIS-Erf2-(FLAG)-Erf4, 1 mM EDTA, 1 mM dithiothreitol, 8 mU 2-oxogluarate dehydrogenase (α-ketoglutarate dehydrogenase), 50 mM sodium phosphate, pH 6.8, and 0 100 μM inhibitor in 5% DMF. The reaction was initiated by the addition of 40 μM palmitoyl-CoA and monitored for 30 mins at 30° C. The first 10 mins of the reaction was analyzed to determine the initial rates of CoASH release. The PAT specific activity was determined from a standard curve of NADH production with different CoASH amounts. In these reactions, CoASH was added to the standard PAT reaction mixture (without Erf2/Erf4 complex or palmitoyl-CoA) and the reaction was allowed to proceed to equilibrium before fluorescence was measured.
The identification of palmitoylation inhibitors has been hampered by the lack of assays amenable to high throughput screening applications. Previously, we validated an assay that monitors the rate of autopalmitoylation by measuring the production of CoASH generated from the […] of palmitoyl-CoA [13]. This assay has a Z′-value of 0.87 [13]. […] This assay can be used to monitor autopalmitoylation in real time or as an end point assay, thus providing flexibility when screening small molecule compounds. Compounds with internal fluorescence or that affect the assay components are easily identified and excluded, allowing for the rapid identification of the compounds that inhibit or activate PAT autopalmitoylation activity. […]

[6] = tested on: S. cerevisiae RJY1941 (control); assay: Yeast cell spot assay, control strain; format: cell-based
Description: as §1, §2

[7] = spotted after 24 hrs incubation, read-out: inhibition of growth of RJY1942 (sensitized)
[8] = 20 μM, spotted after 24 hrs incubation
[9] = concentrations lower than 20 μM (2.5, 5, 10 μM)

SMILES	mode of inhibition of Erf2 autopalmitoylation (Erf2 [1])	Ki (Erf2 [2]; dose response curves of steady-state autopalmitoylation, read-out: steady-state autopalmitoylation inhibition constant (Ki), gel-based assay) [µM]	EC50 ([3]; Saccharomyces cerevisiae, read-out: EC50 (50% reduction in growth)) [µM]	selectivity: EC50 in the control strain RJY1941 as compared to the sensitive strain RJY1942 [3] [fold]	inhibition of yeast growth in spot assay ([4]; 2.5-20 μM on solid yeast medium, strain not specified)	Ki (Erf2 [5]) [µM]	VMAX for the Palmitoyl-CoA substrate (Erf2 [5]; inhibitor at 25 μM) [µM]	VMAX for the Palmitoyl-CoA substrate (Erf2 [5]; inhibitor at 50 μM) [µM]	VMAX for the Palmitoyl-CoA substrate (Erf2 [5]; inhibitor at 100 μM) [µM]	mode of inhibition of steady-state Erf2 autopalmitoylation (Erf2 [2]; 25, 50, 100 μM compound at varying BODIPY-C12-CoA)	inhibition at 5 µM [4, 7] [%]	mode of inhibition of Erf2 autopalmitoylation (Erf2 [5])	inhibition of growth of RJY1941 (control) [6, 8]	inhibition of growth of RJY1941 (control) [6, 9]	inhibition of growth of RJY1942 (sensitized) ([4]; concentrations higher than 5 μM)	inhibition at 5 µM ([4]; read-out: inhibition of growth of RJY1942 (sensitized), relative to that observed for compound 13) [%]
CCCCCCCCCCCCCCC(Br)C(=O)O (stereo not drawn) [Compound 2-BP, 2-bromopalmitic acid, reference compound]	uncompetitive or mixed inhibitor	79	12.5	2	did not inhibit	59	160 ± 5	126 ± 23	51 ± 8							
CC(C)Cc1ccc(C(C)CN2CCNC[C@@H]2CCCCN2CCN(CC(C)c3ccc(CC(C)C)cc3)[C@@H](Cc3ccc(O)cc3)C2)cc1 (stereo partly drawn) [Compound 13, 4-(((2S)-1-(2-(4-isobutylphenyl)propyl)-4-(4-((2S)-1-(2-(4-isobutylphenyl)propyl)piperazin-2-yl)butyl)piperazin-2-yl)methyl)phenol]				2			243 ± 20	354 ± 26	631 ± 94	acting competitively	100	Competitively	completely inhibited	no detectable effect		
CC(C)Cc1ccc(C(C)CN2CCNC[C@@H]2CCCCN2CCN(CCc3cc(C(F)(F)F)cc(C(F)(F)F)c3)[C@@H](Cc3ccc(O)cc3)C2)cc1 (stereo partly drawn) [Compound 14, 4-(((2S)-1-(3,5-bis(trifluoromethyl)phenethyl)-4-(4-((2S)-1-(2-(4-isobutylphenyl)propyl)piperazin-2-yl)butyl)piperazin-2-yl)methyl)phenol]											~10		completely inhibited	no detectable effect	total inhibition	
CC(C)Cc1ccc(C(C)CN2CCN(CCCC[C@H]3CNCCN3CCc3cc(C(F)(F)F)cc(C(F)(F)F)c3)C[C@@H]2Cc2ccc(O)cc2)cc1 (stereo partly drawn) [Compound 25, 4-(((2S)-4-(4-((S)-1-(3,5-bis(trifluoromethyl)phenethyl)piperazin-2-yl)butyl)-1-(2-(4-isobutylphenyl)propyl)piperazin-2-yl)methyl)phenol]				2			307 ± 30	344 ± 34	542 ± 60			Competitively	completely inhibited	no detectable effect		~90
